Structures can show the parent of a compound that is named as a salt.
Assays:
[1] = molecular target: T1, human platelet-derived TXA2 receptor (Homo sapiens, UniProt P21731); assay: binding of U-46619 to human platelet-derived TXA2 receptor expressing cells (TCHO-25), receptor assay
T1 construct: expressed in transfected cells
T1 sequence (P21731 1-343): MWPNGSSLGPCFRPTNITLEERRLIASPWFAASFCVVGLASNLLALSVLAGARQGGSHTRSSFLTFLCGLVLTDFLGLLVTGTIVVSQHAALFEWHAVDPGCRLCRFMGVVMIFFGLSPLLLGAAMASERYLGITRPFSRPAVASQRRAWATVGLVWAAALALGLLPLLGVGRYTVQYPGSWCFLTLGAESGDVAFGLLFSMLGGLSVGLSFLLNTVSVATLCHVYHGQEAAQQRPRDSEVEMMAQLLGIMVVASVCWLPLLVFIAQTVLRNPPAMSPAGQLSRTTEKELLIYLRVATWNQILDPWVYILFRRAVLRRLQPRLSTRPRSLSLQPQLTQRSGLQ
Description: Effects on the binding of U-46619 (11-9-epoxymethane-PGH2, a substance having thromboxane A2 -like activity) to human platelet-derived TXA2 receptor expressing cells
A vector containing cDNA encoding TXA2 receptor (TXA2 .cndot.R) and a vector containing cDNA encoding dihydrofolate reductase were mixed in a ratio of 10:1, and are transferred simultaneously to Chinese hamster ovary (CHO) cells by the calcium phosphate method. Two days later, these cells were inoculated into a medium containing 0.3 mM proline, 10% bovine fetus serum and 0.1 μM methotrexate in a concentration of 2000 cells/well and incubated.

[2] = test system: intranasal pressure increase induced by inhalation of antigens; assay: Experiment 5: intranasal pressure increase induced by inhalation of antigens in actively sensitized (involving IgE participation) guinea pigs; format: in vivo; conditions: p.o.; for Internasal pressure increase AUC(0-30 min): 5% G.A. 339 ± 55
Protocol: Hartley male guinea pigs weighing 300 to 400 g (Nippon SLC, Shizuoka, Japan) were anesthetized with pentobarbital (30 mg/kg, i.p.) and fixed on their backs. The cervical part was opened along the median line, the trachea was opened for maintaining respiration, and a cannula was inserted. A tube (JMS cutdown tube, 2.5 mm in outer diameter and 3.5 cm in length) was inserted from the opened site of the trachea into the nasal cavity. The other end of the tube was connected to a respirator (Harvard respirator, model 683), and air was sent into the nasal cavity at a tidal volume of 4 ml and a respiration rate of 70/min. Aerosol of U-46619 (30 μg/ml) solution was prepared using an ultrasonic nebulizer and sent into the nasal cavity for 3 minutes. Changes of the intranasal pressure were determined with a differential pressure transducer connected to the branch of the tube. To prevent air leakage into the oral cavity, the oral cavity was closed with an adhesive (Aron alpha, trade name). Effects on intranasal pressure increase induced by inhalation of antigens in actively sensitized (involving IgE participation) guinea pigs Hartley male guinea pigs weighing 300 to 400 g (Nippon SLC, Shizuoka, Japan) were immunized by a modified method of the method of Levine et al. Sensitization was carried out by intraperitoneally administering physiological saline (1 ml) containing ovalbumin (OA)(10 μg) and aluminium hydroxide gel (5 mg) 4 times every 2 weeks. The sensitized guinea pigs were used one week after the final administration. These guinea pigs were anesthetized with pentobarbital (30 mg/kg, i.p.). In a similar manner to that described in Experiment 4, changes of intranasal pressure were determined. Aerosol of OA (3%) was prepared using an ultrasonic nebulizer provided between the respirator and the intranasal tube, and sent into the nasal cavity for 3 minutes. The test drug was suspended in 5% G.A. solution and orally administered one hour before the OA inhalation.

allergic rhinitis = assay: Experiment 2: effects of perfusion in nasal cavities on allergic rhinitis in guinea pigs (pigment leakage); format: in vivo; conditions: 5 mg/kg perfused in nasal cavity; increase Period-3 minus Period-1; 16 animals; 5% G.A. 13.83 ± 2.61
Protocol: Effects of perfusion in nasal cavities on allergic rhinitis in guinea pigs
Aerosol of 1% ovalbumin (OA) solution in physiological saline was prepared using an ultrasonic nebulizer (TUR-3200, Nippon Kohden, Tokyo, Japan), and administered to Hartley male guinea pigs weighing 300 to 350 g (Seiwa Jikken Dohbutsu, Fukuoka, Japan) by inhalation for 10 minutes in a polyacrylamide box (20×28×20 cm) once a week (twice in all). Thus the guinea pigs were sensitized. One week after the sensitization, the guinea pigs were anesthetized with pentobarbital sodium (30 mg/kg, i.p.) and fixed on their backs on a thermal pad (Deltaphase isothermal pad, Braintree Scientific, Inc.). The cervical part was opened along the median line, the trachea was opened, a trachea cannula was inserted into the pulmonary side, and the esophagus was ligated. On the other hand, a polyethylene tube (5.5 cm in length, 2.3 mm in outer diameter, Hibiki) connected to an infusion pump was inserted at the nasal side into the choana. […] The resulting perfusion solution was centrifuged at 15,000× g for 1.5 minutes, and the amount of the pigment in the supernatant was determined by absorbance at 610 nm. The activity of the drug was evaluated using as an indication the increased amount of the leaked pigment at Period-3 (i.e., (the amount of the pigment at Period-3)--(the amount of the pigment at Period-1)).

ICR male mice = assay: oral toxicity in mice; format: in vivo; conditions: 1000 mg/kg, five ICR male mice (5 weeks old), 7 days
Description: The compounds to be used as an active ingredient in the present invention have low toxicity. […] The compound to be used as an active ingredient in the present invention can be used as it is or as a pharmaceutical composition (e.g., tablets, granules, capsules including soft capsules and microcapsules, liquid preparations, injections, suppositories, nasal drops, eye drops, etc.) prepared by mixing the compound with a per se known pharmaceutically acceptable carrier, diluent, excipient, etc., for treating or preventing allergic rhinitis, particularly nasal congestion in a mammal. The administration route may be oral or parenteral. The dose varies with the subject to be administered, administration route, symptoms, etc. For example, for oral administration to an adult patient, a unit dose of normally about 0.1 mg/kg to 20 mg/kg body weight, preferably 0.1 mg/kg to 10 mg/kg body weight is advantageously administered about once or twice a day.

[3] = test system: intranasal pressure increase induced by antigen inhalation; assay: Experiment 6: intranasal pressure increase induced by antigen inhalation in guinea pigs sensitized by antigen inhalation; format: in vivo; conditions: p.o.; for Increase of intranasal pressure AUC(0-25 min): 5% G.A. 278 ± 35
Protocol: Hartley male guinea pigs weighing 300 to 400 g (Nippon SLC, Shizuoka, Japan) were anesthetized with pentobarbital (30 mg/kg, i.p.) and fixed on their backs. The cervical part was opened along the median line, the trachea was opened for maintaining respiration, and a cannula was inserted. A tube (JMS cutdown tube, 2.5 mm in outer diameter and 3.5 cm in length) was inserted from the opened site of the trachea into the nasal cavity. The other end of the tube was connected to a respirator (Harvard respirator, model 683), and air was sent into the nasal cavity at a tidal volume of 4 ml and a respiration rate of 70/min. Aerosol of U-46619 (30 μg/ml) solution was prepared using an ultrasonic nebulizer and sent into the nasal cavity for 3 minutes. Changes of the intranasal pressure were determined with a differential pressure transducer connected to the branch of the tube. To prevent air leakage into the oral cavity, the oral cavity was closed with an adhesive (Aron alpha, trade name). Effects on intranasal pressure increase induced by antigen inhalation in guinea pigs sensitized by antigen inhalation Aerosol of 1% OA solution in physiological saline was prepared and administered to Hartley male guinea pigs weighing 300 to 400 g (Nippon SLC, Shizuoka, Japan) by inhalation for 10 minutes. One week later, inhalation was performed again for sensitization. These animals were used as sensitized animals. In a similar manner to that described in Experiment 4, intranasal pressure was determined. The test drug was suspended in 5% G.A. solution and orally administered one hour before the antigen induction.

[4] = test system: allergic experimental rhinitis; assay: Experiment 1: inhibitory effects on allergic experimental rhinitis in guinea pigs (pigment leakage after antigen perfusion); format: in vivo; conditions: 30 mg/kg, oral, 1 hour before antigen
Protocol: Inhibitory effects on allergic experimental rhinitis in guinea pigs
Hartley male guinea pigs weighing 350 to 450 g were used. Aerosol of 1% ovalbumin (OA) in physiological saline was prepared using an ultrasonic nebulizer and administered to the guinea pigs by inhalation for 10 minutes. Thus the guinea pigs were sensitized. One week later, the antigen was administered again by inhalation, and the guinea pigs were used for this experiment after one week. The following experiment procedures were carried out by reference to the method of Kojima et al. (Allergy, Vol. 35, p. 180-187 (1986)).
The sensitized guinea pigs were anesthetized by administering pentobarbital (30 mg/kg) intraperitoneally. […] The collected sample was centrifuged at 3000 rpm for 10 minutes, and the absorbance of the supernatant at 620 nm was measured with a spectrophotometer to calculate the pigment concentration.
The drug was suspended in 5% gum arabic (G.A.) solution and was orally administered 1 hour before the antigen induction. The inhibitory ratio (%) was calculated as a ratio of the amount of the leaked pigment to the maximum amount of the leaked pigment in the control group 10 minutes after the antigen induction. […]

SMILES: CC1=C(C)C(=O)C(C(CCCCCC(=O)O)c2ccccc2)=C(C)C1=O (racemic) [Compound 1, (±)-7-(3,5,6-trimethyl-1,4-benzoquinon-2-yl)-7-phenylheptanoic acid]
- inhibition of the binding of U-46619 to TXA2 receptor (mode) ([1]; TCHO-25 cells): competitively inhibited
- Internasal pressure increase AUC(0-30 min) ([2]; 0.3 mg/kg, 12 animals): 208 ± 44
- Internasal pressure increase AUC(0-30 min) ([2]; 3.0 mg/kg, 12 animals): 241 ± 32
- Internasal pressure increase AUC(0-30 min) ([2]; 30 mg/kg, 13 animals, *P < 0.05): 183 ± 36
- Pigment concentration (allergic rhinitis): 8.87 ± 2.47 µg/mL
- mortality (ICR male mice): no mice died
- Increase of intranasal pressure AUC(0-25 min) ([3]; 0.3 mg/kg, 7 animals): 246 ± 44
- Increase of intranasal pressure AUC(0-25 min) ([3]; 3.0 mg/kg, 8 animals): 201 ± 41
- Increase of intranasal pressure AUC(0-25 min) ([3]; 30 mg/kg, 7 animals, *P < 0.05): 143 ± 19

SMILES: CN1CCCC(n2nc(Cc3ccc(Cl)cc3)c3ccccc3c2=O)CC1 (stereo not shown) [Azelastine hydrochloride, reference compound]
- Internasal pressure increase AUC(0-30 min) ([2]; 1.0 mg/kg, 8 animals, **P < 0.01): 92 ± 14
- Inhibitory ratio (%) ([2]; 1.0 mg/kg, AUC(0-30 min), 8 animals): 73%
- Increase of intranasal pressure AUC(0-25 min) ([3]; 1.0 mg/kg, 7 animals, marked **): 157 ± 35
- Inhibitory ratio (%) ([3]; 1.0 mg/kg, AUC(0-25 min), 7 animals): 44%

SMILES: CCCCC[C@H](O)/C=C/[C@@H]1[C@@H](C/C=C\CCCC(=O)O)[C@H]2CO[C@@H]1C2 [Compound U-46619, 11-9-epoxymethane-PGH2, reference compound]
- Kd ([1]; U-46619 based on TXA2 receptor on TCHO-25 cells, read-out: dissociation constant): 31 nM

SMILES: COc1ccc(CN(CCN(C)C)c2ccccn2)cc1 [Mepyramine]
- Inhibitory ratio (%) ([4]; Table 1, 9 animals): 81%
- Inhibitory ratio (%) ([4]; Table 2, 10 animals, **P < 0.01): 77%

From patent publication US5733929A, “Pharmaceutical composition for treating or preventing allergic rhinitis” (Takeda Chemical Industries, Ltd., priority 1993, dated 1998)
